Like-named read-outs stand apart in the source and are kept apart here.
Key:
LPA1 [1] = molecular target: T1, LPA1 (Homo sapiens, UniProt Q92633); test: in vitro cAMP assay using a CHO cell line overexpressing LPA1 receptor; format: cell-based; design: GFP; host or cells: CHO-K1, transiently transfected; conditions: for % inhibition: cAMP assay, 1 μM LPA, 100 nM forskolin, test concentration not given
Target sequence in this assay (Q92633 whole entry): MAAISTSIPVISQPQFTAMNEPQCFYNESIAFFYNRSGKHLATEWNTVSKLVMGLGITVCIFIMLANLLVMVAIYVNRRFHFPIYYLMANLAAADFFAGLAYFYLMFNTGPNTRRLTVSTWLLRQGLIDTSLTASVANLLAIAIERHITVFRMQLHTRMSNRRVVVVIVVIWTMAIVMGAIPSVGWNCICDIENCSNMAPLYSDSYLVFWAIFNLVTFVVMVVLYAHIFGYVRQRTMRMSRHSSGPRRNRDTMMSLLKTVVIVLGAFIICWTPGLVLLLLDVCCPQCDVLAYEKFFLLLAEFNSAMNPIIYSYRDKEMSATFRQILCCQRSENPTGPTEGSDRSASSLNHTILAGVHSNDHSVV

MDA-MB-231 cells [2] = test: colony formation assay; format: cell-based; conditions: LPA with 1f 0, 0.5, 1.0 or 1.5 mM, FIG. 2
Experimental: In order to study the effect of LPA and the compound 1f on the proliferation, migration, and invasion of MDA-MB-231, several in vitro assays were performed. Colony formation assay is a cell survival assay based on the ability of a single cell to grow into a colony and was performed to evaluate cell proliferation (17).
MDA-MB-231 cells were trypsinized and plated in 6-well plate at a density of 1,000 cells/well and then cultured in 10% FBS DMEM. Cells were allowed to attach overnight and then exposed to LPA or LPA with 1f (0, 0.5, 1.0 or 1.5 mM). Forty-eight hours after chemical treatment, the media was replaced with fresh media, and the plates were incubated at 37° C. Ten days later, the cells were fixed and stained with 4% paraformaldehyde in 0.1% crystal violet. The number of colonies, defined as >50 cells/colony were counted, and the number of colonies were calculated using ImageJ.

MDA-MB-231 cells [3] = test: wound healing assay; format: cell-based; conditions: LPA with 1f 0, 0.5, 1.0 or 1.5 mM, 48 h, FIG. 3A
Experimental: Wound healing assay is a well-established method to determine cell migration in vitro. Firstly, a scratch was created in the cell monolayer, and then cells migrate to close the scratch. Cell migration rate can be measured using this method.
Cells were seeded in a six-well plate at a density of 3×10^5 cells/well. When the cells formed a tight cell monolayer, a 200-μl plastic pipette tip was used to make a scratch. Cells were washed with PBS to remove cell debris, cultured in serum-free DMEM medium and exposed to LPA or LPA with 1f (0, 0.5, 1.0 or 1.5 mM) for 48 h.
Wound photographs were recorded at the indicated times and analyzed by ImageJ software. All assays were conducted three times in our study.

MDA-MB-231 cells [4] = test: transwell cell migration assay; format: cell-based; conditions: LPA with 1f 0, 0.5, 1.0 or 1.5 mM, 48 h, FIG. 3B
Experimental: (§1) In addition, transwell migration/invasion assays were performed to further confirm the effect of LPA and 1f on cell migration and invasion. Transwell assay is based on a chamber of two media-filled partitions separated by a microporous membrane. Cells were plated in the upper chamber and are allowed to migrate to the lower chamber through the membrane pores with the stimulation of LPA and 1f. For the invasion assay, a layer of basement membrane extract was precoated on the chamber to block the pores of the membrane and prevent non-invasive cells from migrating through the membranes. Invasive cells are able to secret proteases which degrade the membrane extract in order to invade through the membrane.
(§2) Transwell assays were conducted in 24-well transwell plates (pore size: 8 μm) to assess the migratory and invasive capacities of MDA-MB-231 cells. For migration assays, 2×10^4 cells were placed in 200 μl of serum-free DMEM in the upper chamber and then 500 μl of DMEM containing 10% FBS was added to the lower chamber. For the invasion assays, the chamber inserts were precoated with 50 μl of 1:9 mixture of basement membrane extract (R&D Systems) and DMEM overnight in a 37° C. incubator, then 6×10^4 cells were seeded in the upper chamber. 500 μl of DMEM containing 10% FBS was added to the lower chamber. Cells were treated with LPA or LPA with 1f (0, 0.5, 1.0 or 1.5 mM) for 48 h. […]

MDA-MB-231 cells [5] = test: transwell cell invasion assay; format: cell-based; conditions: basement membrane extract coated, LPA with 1f 0, 0.5, 1.0 or 1.5 mM, 48 h, FIG. 3B
Experimental: as §1, §2

LPA1 [6] = molecular target: T1, LPA1; conditions: literature value (ref 15); read-out: IC50 in calcium release assay (LPA1); cited from earlier work
Target sequence in this assay (Q92633 whole entry, species assumed): as the sequence (Q92633 whole entry) above

LPAs = molecular target: T2, LPAs (Homo sapiens, UniProt Q9UBY5); conditions: literature value (ref 15); read-out: LPAs IC50 in calcium release assay; cited from earlier work
T2 sequence (Q9UBY5 1-353): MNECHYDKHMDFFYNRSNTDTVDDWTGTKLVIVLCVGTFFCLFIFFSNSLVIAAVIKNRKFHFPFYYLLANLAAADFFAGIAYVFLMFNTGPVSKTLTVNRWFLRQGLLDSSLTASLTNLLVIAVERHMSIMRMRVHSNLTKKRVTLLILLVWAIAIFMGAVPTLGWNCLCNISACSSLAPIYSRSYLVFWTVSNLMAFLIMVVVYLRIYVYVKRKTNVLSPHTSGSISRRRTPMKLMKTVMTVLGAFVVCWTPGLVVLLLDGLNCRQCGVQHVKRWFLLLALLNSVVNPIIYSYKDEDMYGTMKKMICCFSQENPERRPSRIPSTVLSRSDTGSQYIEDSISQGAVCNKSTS

lung fibroblast = conditions: in vitro; literature (ref 15); cited from earlier work
[7] = system: histamine release induced by LPA; conditions: in vivo; literature (ref 15); cited from earlier work
[8] = concentration to reverse 50% of the inhibitory effect of 1 μM 18:1 LPA on forskolin-mediated cAMP production, CHO-K1 overexpressing LPA1

% inhibition (LPA1 [1]) [%]	IC50 (LPA1 [1]; [8]) [nM]	SMILES	also measured
58.43	3340	Cc1nnn(-c2ccc(-c3ccc(C4(C(=O)O)CC4)cc3)cc2)c1NC(=O)OCc1ccc(F)cc1 [Compound 1b, 1-(4′-(5-((((4-fluorobenzyl)oxy)carbonyl)amino)-4-methyl-1H-1,2,3-triazol-1-yl)-[1,1′-biphenyl]-4-yl)cyclopropane-1-carboxylic acid]	
77.1	2150	Cc1nnn(-c2ccc(-c3ccc(C4(C(=O)O)CC4)cc3)cc2)c1NC(=O)OCc1cccc(F)c1 [Compound 1c, 1-(4′-(5-((((3-fluorobenzyl)oxy)carbonyl)amino)-4-methyl-1H-1,2,3-triazol-1-yl)-[1,1′-biphenyl]-4-yl)cyclopropane-1-carboxylic acid]	
81.9	1490	Cc1nnn(-c2ccc(-c3ccc(C4(C(=O)O)CC4)cc3)cc2)c1NC(=O)OCc1ccccc1F [Compound 1d, 1-(4′-(5-((((2-fluorobenzyl)oxy)carbonyl)amino)-4-methyl-1H-1,2,3-triazol-1-yl)-[1,1′-biphenyl]-4-yl)cyclopropane-1-carboxylic acid]	
102.1	93.3	Cc1nnn(-c2ccc(-c3ccc(C4(C(=O)O)CC4)cc3)cc2)c1NC(=O)OC(C)c1ccc(F)cc1 (stereo not shown) [Compound 1e, 1-(4′-(5-(((1-(4-fluorophenyl)ethoxy)carbonyl)amino)-4-methyl-1H-1,2,3-triazol-1-yl)-[1,1-biphenyl]-4-yl)cyclopropane-1-carboxylic acid]	
109.8	16	Cc1nnn(-c2ccc(-c3ccc(C4(C(=O)O)CC4)cc3)cc2)c1NC(=O)OC(C)c1cccc(F)c1 (stereo not shown) [Compound 1f, 1-(4′-(5-(((1-(3-fluorophenyl)ethoxy)carbonyl)amino)-4-methyl-1H-1,2,3-triazol-1-yl)-[1,1′-biphenyl]-4-yl)cyclopropane-1-carboxylic acid]	inhibition of LPA-induced cell proliferation (colony formation) (MDA-MB-231 cells [2]): inhibited LPA-induced MDA-MB-231 cell proliferation in a dose-dependent manner; inhibition of LPA-induced cell migration (wound healing) (MDA-MB-231 cells [3]): impeded cell migration dose-dependently; inhibition of LPA-induced cell migration (transwell) (MDA-MB-231 cells [4]): hindered by 1f dose-dependently; inhibition of LPA-induced cell invasion (transwell) (MDA-MB-231 cells [5]): hindered by 1f dose-dependently; IC50 (nM) (LPA1 [1]; [8]): lower than the control compound
115.7	91.2	CCc1cccc(COC(=O)Nc2c(C)nnn2-c2ccc(-c3ccc(C4(C(=O)O)CC4)cc3)cc2)c1 [Compound 1h, 1-(4′-(5-((((3-ethylbenzyl)oxy)carbonyl)amino)-4-methyl-1H-1,2,3-triazol-1-yl)-[1,1′-biphenyl]-4-yl)cyclopropane-1-carboxylic acid]	
41.8	1000	Cc1nnn(-c2ccc(-c3ccc(C4(C(=O)O)CC4)cc3)cc2)c1NC(=O)NCc1ccccn1 [Compound 2a, 1-(4′-(4-methyl-5-(3-(pyridin-2-ylmethyl)ureido)-1H-1,2,3-triazol-1-yl)-[1,1′-biphenyl]-4-yl)cyclopropane-1-carboxylic acid]	
40.5	3150	Cc1nnn(-c2ccc(-c3ccc(C4(C(=O)O)CC4)cc3)cc2)c1NC(=O)NCc1ccc(F)cc1 [Compound 2b, 1-(4′-(5-(3-(4-fluorobenzyl)ureido)-4-methyl-1H-1,2,3-triazol-1-yl)-[1,1′-biphenyl]-4-yl)cyclopropane-1-carboxylic acid]	
88.1	2000	Cc1nnn(-c2ccc(-c3ccc(C4(C(=O)O)CC4)cc3)cc2)c1NC(=O)NCc1cccc(F)c1 [Compound 2c, 1-(4′-(5-(3-(3-fluorobenzyl)ureido)-4-methyl-1H-1,2,3-triazol-1-yl)-[1,1′-biphenyl]-4-yl)cyclopropane-1-carboxylic acid]	
49.5	4470	Cc1nnn(-c2ccc(-c3ccc(C4(C(=O)O)CC4)cc3)cc2)c1NC(=O)NCc1ccccc1F [Compound 2d, 1-(4′-(5-(3-(2-fluorobenzyl)ureido)-4-methyl-1H-1,2,3-triazol-1-yl)-[1,1′-biphenyl]-4-yl)cyclopropane-1-carboxylic acid]	
102.0	780	Cc1nnn(-c2ccc(-c3ccc(C4(C(=O)O)CC4)cc3)cc2)c1NC(=O)N[C@H](C)c1ccc(F)cc1 [Compound 2e, (R)-1-(4′-(5-(3-(1-(4-fluorophenyl)ethyl)ureido)-4-methyl-1H-1,2,3-triazol-1-yl)-[1,1′-biphenyl]-4-yl)cyclopropane-1-carboxylic acid]	
108.1	242	Cc1nnn(-c2ccc(-c3ccc(C4(C(=O)O)CC4)cc3)cc2)c1NC(=O)N[C@H](C)c1ccccc1 [Compound 2f, (R)-1-(4′-(4-methyl-5-(3-(1-phenylethyl)ureido)-1H-1,2,3-triazol-1-yl)-[1,1′-biphenyl]-4-yl)cyclopropane-1-carboxylic acid]	
92.7	299	Cc1nnn(-c2ccc(-c3ccc(C4(C(=O)O)CC4)cc3)cc2)c1NC(=O)N[C@@H](C)c1ccccc1 [Compound 2g, (S)-1-(4′-(4-methyl-5-(3-(1-phenylethyl)ureido)-1H-1,2,3-triazol-1-yl)-[1,1′-biphenyl]-4-yl)cyclopropane-1-carboxylic acid]	
83.8	240	Cc1nnn(-c2ccc(-c3ccc(C4(C(=O)O)CC4)cc3)cc2)c1NC(=O)NC(C)c1ccccc1 (stereo not shown) [Compound 2h, 1-(4′-(4-methyl-5-(3-(1-phenylethyl)ureido)-1H-1,2,3-triazol-1-yl)-[1,1′-biphenyl]-4-yl)cyclopropane-1-carboxylic acid]	
111.6	18.3	Cc1nnn(-c2ccc(-c3ccc(C4(C(=O)O)CC4)cc3)cc2)c1NC(=O)O[C@H](C)c1ccccc1 [RO-2]	IC50 (LPA1 [6]): 25 nM; IC50 (LPAs): > 30000 nM; inhibition of lung fibroblast contraction induced by LPA (lung fibroblast): inhibited lung fibroblast proliferation and contraction induced by LPA in vitro; inhibition of lung fibroblast proliferation induced by LPA (lung fibroblast): inhibited lung fibroblast proliferation and contraction induced by LPA in vitro; histamine release induced by LPA [7]: ameliorated histamine release induced by LPA in vivo

From patent publication US20240317709A1, “Lysophosphatidic Acid Receptor Antagonists for Breast Cancer Treatment” (Lakehead University, priority 2023, published 2024)
